# Laboratory results: patent publication EP0063826A2, “2-Amino-benzoic-acid derivatives, their preparation and their use as medicines or intermediates” (Dr. Karl Thomae GmbH, priority 1980, dated 1981)
# Test system: Mäusen
# Test: Acute oral toxicity in mice (orienting)
# Assay type: in vivo
# Conditions: 2 000 mg/kg by gavage, group of 10, observation 14 days
# Experimental: Die akute Toxizität wurde orientierend an Gruppen von 10 Mäusen (5 weibliche und 5 männliche Mäuse; Beobachtungszeit: 14 Tage) nach Gabe einer Dosis von 2 000 mg/kg pro Tier in Methylcellulose-Suspension per Schlundsonde bestimmt: […]
compound,measurement,value
"O=C(O)c1cc(Cl)ccc1N1CCC2(CC1)OCCO2 [Substanz A, 5-Chlor-2-(1,4-dioxa-8-aza-spiroL4,6/decan-8-yl)-benzoe-säure]",Tieren gestorben,0 von 10
